Measurements taken from patent US5804589A, “Use of N-cyclohexyl benzamides for treating bowel disorders” (Laboratoires Jacques Logeais, priority 1995, dated 1998).
Where “and” joins values, the source holds several entries; their conditions need not be identical. Equal values may be shown once. Entries after “also recorded” stand apart in the source; their conditions may differ.

Columns and labels:
[1] = Visceral sensitivity: abdominal contractures produced by rectal distension after acetic acid irritation; format: in vivo; conditions: rat, 10 min distension, mean of five rats, placebo 23.8 ± 1.6, * p < 0.05 vs placebo
Source text: The first model consists in observing, in the rat, the abdominal contractures produced by a rectal distension applied to a mucous membrane which has been irritated beforehand. The number of contractures is proportional to the intensity of the pain experienced. A similar model has been described in Neurogastroenterol. and Mot. (1994), 6, 140, where it is shown that the products which decrease the perception of pain in man decrease the number of contractures observed in the rat.
Male Sprague-Dawley rats weighing 180 g are deprived of food for 12 hours. Under slight fluothane anaesthesia, an intrarectal probe is introduced (5 cm from the anus) and 1.5 ml of 1% dilute acetic acid are injected. The acid immediately flows out via the anus. This rapid contact of the acid makes it possible to irritate the mucous membrane (model for rectal colitis). 1 h 30 after irritation, a small latex balloon (diameter when empty 2 mm, length 1 cm), mounted on a polyurethane catheter (int. diameter 1 mm), is introduced into the rectum (5 cm from the anus) under slight fluothane anaesthesia. The catheter is attached to the base of the tail with adhesive tape and protected by a glass tube. The test product is administered by force feeding and the rat is then introduced into a crystallizing dish covered with a grid. The free ends of the tube and of the catheter are passed through the grid in order to carry out the dilations.
A distension is carried out 2 h 30 after irritating the rectum. The small balloon is dilated with 1.5 ml of distilled water (intracolic pressure equal to 60 mm Hg on average). Dilation is maintained for 10 minutes, during which the abdominal contractures are counted. The small balloon is then deflated by sucking off the distilled water.
They are expressed by the mean number of contractures observed with respect to five rats for the 10 minutes during which they are subjected to a distension.

[2] = Ulcerative colitis induced by intracolic trinitrobenzenesulphonic acid (TNB): weight, macroscopic and histological analysis of colon; format: in vivo, rat; conditions: for Mean weight of the animals: in g
Source text: A model for ulcerative colitis induced in the rat by an intracolic instillation of trinitrobenzenesulphonic acid has already been described, for example in Gut (1992), 33, 1498-1503.
The beneficial effect of a treatment on the development of this colitis can be evaluated, on the one hand, by the overall state of health of the animal, represented for example by the change in weight, and, on the other hand, by a histological study of the colon at the end of the experiment.
Male Sprague-Dawley rats (140-150 g), deprived of food since the previous day, are subjected, under general anaesthesia (isoflurane), to irritation of the mucous membrane of the distal colon (7 cm from the anus) with 1 ml of a 50 mg/ml aqueous trinitrobenzenesulphonic acid (TNB) solution. On the following day, the rats are randomized in two equal-sized groups (n=7) which then receive the treatment (placebo or product) by forcefeeding, mornings and evenings. The products are administered at 1 mg/kg p.o. twice daily.
The treatment is administered for the ten days which follow irritation of the colon. The animals are weighed every morning from D5 to D10. The animals are deprived of food on D9 and humanely killed on D10. The colons are removed and macroscopically and then histologically examined.
The macroscopic appearance of the colons was graded as follows:
Sections of the colon are fixed with formaldehyde and enclosed in paraffin blocks. 5 μm sections are prepared, stained with haemalum-eosin and evaluated by optical microscopy according to the following gradings:
The colon was divided into three mucous, submucous and muscular layers and each layer was graded according to the preceding criteria.
The sum of the gradings attributed to each substructure defines, per animal, an index which takes into account both the afflux of the inflammatory cells and the architectural distortion.

5-HT3 receptors [3] = molecular target: T1, 5-HT3 receptors (Rattus norvegicus, UniProt P35563); experiment: Bezold-Jarisch reflex: inhibition of bradycardia induced by serotonin (5-HT3 antagonist activity in vivo); conditions: iv; read-out: IC50 for antagonism of serotonin-induced bradycardia
T1 construct: from tissue; host or cells: whole animal (endogenous receptor)
T1 sequence (P35563 24-483): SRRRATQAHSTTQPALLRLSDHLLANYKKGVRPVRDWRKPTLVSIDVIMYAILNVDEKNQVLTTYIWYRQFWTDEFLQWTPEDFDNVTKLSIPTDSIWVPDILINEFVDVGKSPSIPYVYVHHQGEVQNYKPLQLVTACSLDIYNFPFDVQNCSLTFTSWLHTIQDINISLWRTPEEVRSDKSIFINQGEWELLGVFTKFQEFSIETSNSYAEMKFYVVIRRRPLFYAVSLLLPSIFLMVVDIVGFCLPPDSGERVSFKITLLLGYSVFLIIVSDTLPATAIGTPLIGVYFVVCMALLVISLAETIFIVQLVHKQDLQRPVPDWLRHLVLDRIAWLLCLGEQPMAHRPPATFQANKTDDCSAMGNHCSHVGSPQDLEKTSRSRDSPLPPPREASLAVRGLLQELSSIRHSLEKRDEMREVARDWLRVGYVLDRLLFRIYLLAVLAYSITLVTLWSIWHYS
Description: The 5-HT3 antagonist activity of products was evaluated in vivo by measuring their property of inhibiting a bradycardia induced by serotonin, according to the method described in J. Pharm. & Exp. Therap. (1989), 248, 197-201.

5-HT3 receptors [4] = molecular target: T2, 5-HT3 receptors (Mus musculus, UniProt P23979); experiment: Affinity for 5-HT3 receptors, membrane preparations of NG 108-15 cells, tritiated BRL 43694 as ligand; format: binding; conditions: NG 108-15 cell membranes
T2 sequence (P23979 24-489): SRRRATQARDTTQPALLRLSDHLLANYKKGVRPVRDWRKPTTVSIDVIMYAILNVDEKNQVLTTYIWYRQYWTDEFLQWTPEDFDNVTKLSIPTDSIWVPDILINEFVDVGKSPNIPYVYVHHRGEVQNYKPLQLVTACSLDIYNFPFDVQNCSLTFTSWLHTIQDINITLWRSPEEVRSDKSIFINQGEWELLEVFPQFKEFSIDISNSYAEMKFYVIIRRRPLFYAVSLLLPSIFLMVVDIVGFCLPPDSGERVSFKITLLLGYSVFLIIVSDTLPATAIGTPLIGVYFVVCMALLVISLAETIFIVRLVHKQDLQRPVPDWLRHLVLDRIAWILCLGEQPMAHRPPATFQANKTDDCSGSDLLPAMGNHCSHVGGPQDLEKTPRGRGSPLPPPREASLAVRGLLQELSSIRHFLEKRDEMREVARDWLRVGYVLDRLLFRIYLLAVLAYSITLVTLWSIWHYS
Description: The affinity of the compounds for 5-HT3 receptors was measured according to the method described in Bioch. Pharmacol. (1990), 40, (7), 1541-1550, by using membrane preparations of NG 108-15 cells and tritiated BRL 43694 as specific ligand.

## COc1cc(N)c(Cl)cc1C(=O)N[C@@H]1CCCC[C@@H]1CN1CCC(O)CC1 (relative stereo) [Compound 2]
[1]; 0.3 mg/kg p.o.
  No. of contractures ± standard deviation: 9.2 ± 5.3

## COc1cc(N)c(Cl)cc1C(=O)N[C@@H]1CCCC[C@@H]1CN1CCC(CO)CC1 (relative stereo) [Compound 3]
[1]; 0.3 mg/kg p.o.
  No. of contractures ± standard deviation: 13.2 ± 2.4

## COc1cc(N)c(Cl)cc1C(=O)N[C@@H]1CCCC[C@@H]1CN1CCC(C)(C)CC1 (relative stereo) [Compound 4]
[1]; 0.3 mg/kg p.o.
  No. of contractures ± standard deviation: 10.6 ± 4.2

## COc1cc(N)c(Cl)cc1C(=O)N[C@@H]1CCCC[C@@H]1CN1CCC(C(C)(C)C)CC1 (relative stereo) [Compound 5]
[1]; 0.3 mg/kg p.o.
  No. of contractures ± standard deviation: 10.6 ± 3.8

## CC1CCN(C[C@H]2CCCC[C@H]2NC(=O)c2cc(Cl)c(N)cc2OC(C)C)CC1 (relative stereo) [Compound 7]
[1]; 0.3 mg/kg p.o.
  No. of contractures ± standard deviation: 7.6 ± 0.5

## COc1cc(N)c(Cl)cc1C(=O)N[C@@H]1CCCC[C@@H]1CN1CCC(C)CC1 [Compound 1]
[1]; 0.3 mg/kg p.o.
  No. of contractures ± standard deviation: 3.4 ± 2.1

## CC1CCN(C[C@H]2CCCC[C@H]2NC(=O)c2cc(Cl)c(N)cc2OCC2CC2)CC1 [Compound 6]
[2]; 1 mg/kg p.o. twice daily, TNB colitis
  change in weight versus placebo: significantly improved change in weight
[2]; 5 days after treatment with TNB, 1 mg/kg p.o. twice daily, placebo 130 ± 8
  Mean weight of the animals: 153 ± 15
[2]; 6 days after treatment with TNB, 1 mg/kg p.o. twice daily, placebo 139 ± 18, * p < 0.05
  Mean weight of the animals: 177 ± 23
[2]; 7 days after treatment with TNB, 1 mg/kg p.o. twice daily, placebo 142 ± 20, * p < 0.05
  Mean weight of the animals: 186 ± 27
[2]; 8 days after treatment with TNB, 1 mg/kg p.o. twice daily, placebo 147 ± 23, * p < 0.05
  Mean weight of the animals: 194 ± 34
[2]; 9 days after treatment with TNB, 1 mg/kg p.o. twice daily, placebo 158 ± 30, * p < 0.05
  Mean weight of the animals: 206 ± 39
[2]; D10, 1 mg/kg p.o. twice daily, each index value shared by the number of animals in the column beside it
  Index (histological; sum of gradings of mucous, submucous and muscular layers per animal): 11 and 3 and 1 and 0
[2]; Stage 0: no trace of irritation, D10, 1 mg/kg p.o. twice daily, placebo 0
  Number of animals at macroscopic colon Stage 0: 0
[2]; Stage 1: slightly vasodilated mucous membrane, D10, placebo 0
  Number of animals at macroscopic colon Stage 1: 1
[2]; Stage 2: vasodilated mucous membrane and adhesions, D10, placebo 0
  Number of animals at macroscopic colon Stage 2: 4
[2]; Stage 3: haemorrhagic and sclerotic mucous membrane and adhesions, D10, placebo 3
  Number of animals at macroscopic colon Stage 3: 2
[2]; Stage 4: ulcerated and haemorrhagic mucous membrane and adhesions, D10, placebo 3
  Number of animals at macroscopic colon Stage 4: 0
[2]; chi-squared test, Stages 1 and 2 vs Stages 3 and 4
  seriousness of the macroscopic colon lesions versus placebo: seriousness of the lesions is significantly greater with the placebo than with Compound 6; also recorded: lesional appearance of the colon is less serious
[2]; chi-squared test, indices 0 to 5 vs 6 to 12
  inflammatory state of the colon (histology) versus placebo: inflammatory state is significantly more serious treated with the placebo than treated with Compound 6; also recorded: decrease in the afflux of the inflammatory cells
[2]; number of animals, placebo 0
  size of the class combining histological indices 0 to 5: 5
  size of the class of macroscopic Stages 1 and 2: 5
[2]; number of animals, placebo 6
  size of the class combining histological indices 6 to 12: 2
  size of the class of macroscopic Stages 3 and 4: 2
[1]; 0.1 mg/kg p.o.
  No. of contractures ± standard deviation: 3.3 ± 1.9
[1]; 0.3 mg/kg p.o.
  No. of contractures ± standard deviation: 7.3 ± 2.6
[1]; 1 mg/kg p.o.
  No. of contractures ± standard deviation: 9.4

## CC1CCN(C[C@H]2CCCC[C@H]2NC(=O)c2cc(Cl)c(N)cc2OC2CCCC2)CC1 [Compound 8]
[1]; 0.3 mg/kg p.o.
  No. of contractures ± standard deviation: 9.2 ± 1.3

## CC1CCN(C[C@H]2CCCC[C@@H]2NC(=O)c2cc(Cl)c(N)cc2OCC2CC2)CC1 [Compound 9]
[1]; 0.3 mg/kg p.o.
  No. of contractures ± standard deviation: 6.3 ± 3.5

## Cc1nccn1CC1CCc2c(c3ccccc3n2C)C1=O (stereo not shown) [ondansetron]
5-HT3 receptors [3]
  ED50: ~3 µg/kg
5-HT3 receptors [4]
  Ki: 16 nM
